The text below walks through data of US8987199B2, “Pharmaceutical compositions for intranasal administration for the treatment of neurodegenerative disorders” (Nerve Access, Inc., priority 2011, dated 2015).

The nature of this data set: Solubility of clioquinol in an aqueous medium. In kind it is physicochemical. The source says:
The invention also includes a process to dissolve, stabilize and incorporate clioquinol into an intranasal preparation. Clioquinol dissolves in DMSO. However, it precipitates upon the addition of an aqueous vehicle to that combination. In order to dissolve in an aqueous medium clioquinol requires a pH of approximately 11. A buffering system was developed that maintains the solubility and stability of clioquinol within a pH 7-8 which is compatible with the physiological pH oh the nasal tissue. The buffering system was adjusted to provide a capacity of pH 5-7, within which the preparation will be contained within 7-8 pH. The choice of the buffering system was based on the safety, chemical and physical effects of its ingredients on clioquinol and the other ingredients incorporated in the formula, as well as its effects on the end user of present pharmaceutical composition. The buffer system comprises boric acid and sodium carbonate in certain proportions to produce a protective pH 7-8 at which clioquinol stays physically and chemically stable.

Structures are written as SMILES.

Consider `Oc1c(I)cc(Cl)c2cccnc12` [Clioquinol], for which the “pH required to dissolve in an aqueous medium” value is on record as “approximately 11”.
